Patent US6831075B2, “Heterocyclic substituted pyrazolones” (Cephalon, Inc., priority 1999, dated 2004)

How the values were obtained:
Type in all cases: biochemical
baculoviral GST-MLK3KD = molecular target: T1, baculoviral GST-MLK3KD (Homo sapiens, UniProt Q16584); assay: Mixed Lineage Kinase-3 inhibition assay (Millipore Multiscreen plate, 32P); conditions: 1 uM compound, 100 μM ATP
T1 construct: 2 μg/ml of baculoviral GST-MLK3KD; GST (N); host or cells: baculovirus expression system
Procedure: Inhibition of Mixed Lineage Kinase-3 Activity
Assays were performed using the Millipore Multiscreen plate format as described for MLK1. Briefly, each 50-μl assay mixture contained 20 mM Hepes, pH 7, 1 mM EGTA, 10 mM MgCl2, 1 mM DTT, 25 mM β-glycerophosphate, 100 μM ATP, 0.25 μCi [γ-^32P]ATP, 0.1% BSA, 500 μg/ml myelin basic protein (UBI #13-104), 2% DMSO, various concentrations of test compound, and 2 μg/ml of baculoviral GST-MLK3KD. Samples were incubated for 15 min at 37° C. The reaction was stopped by adding ice cold 50% TCA and the proteins were allowed to precipitate for 30 min at 4° C. The plates were then washed with ice cold 25% TCA. Supermix scintillation cocktail was added, and the plates were allowed to equilibrate for 1-2 hours prior to counting.

baculoviral GST-MLK1KD = molecular target: T2, baculoviral GST-MLK1KD (Homo sapiens, UniProt P80192); assay: Mixed Lineage Kinase-1 inhibition assay (Millipore Multiscreen TCA in-plate, 32P); conditions: for MLK-1 Kinase % inhibition @ 1 uM: 1 uM compound, 60 μM ATP
T2 construct: 1 μg/ml of baculoviral GST-MLK1KD; GST (N); host or cells: baculovirus expression system
T2 sequence (P80192 144-412 limits assumed): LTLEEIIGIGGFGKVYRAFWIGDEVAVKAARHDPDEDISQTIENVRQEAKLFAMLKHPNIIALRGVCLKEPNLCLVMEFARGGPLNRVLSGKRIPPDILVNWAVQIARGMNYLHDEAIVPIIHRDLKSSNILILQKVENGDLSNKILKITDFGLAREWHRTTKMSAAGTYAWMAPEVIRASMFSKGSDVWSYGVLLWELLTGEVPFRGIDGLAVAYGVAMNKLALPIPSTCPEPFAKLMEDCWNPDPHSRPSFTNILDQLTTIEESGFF
Procedure: Inhibition of Mixed Lineage Kinase-1 Activity
The kinase activity of MLK1 was assessed using the Millipore Multiscreen TCA “in-plate” format as described for protein kinase C (Pitt & Lee, J. Biomol. Screening, 1: 47-51, 1996). Briefly, each 50-μl assay mixture contained 20 mM Hepes, pH 7.0, 1 mM EGTA, 10 mM MgCl2, 1 mM DTT, 25 mM β-glycerophosphate, 60 μM ATP, 0.25 μCi [γ-^32P]ATP, 0.1% BSA, 500 μg/ml myelin basic protein (UBI #13-104), 2% DMSO, 1 μM of test compound, and 1 μg/ml of baculoviral GST-MLK1KD. Samples were incubated for 15 min at 37° C. The reaction was stopped by adding ice cold 50% TCA and the protein were allowed to precipitate for 30 min at 4° C. The plates were then washed with ice cold 25% TCA. Supermix scintillation cocktail was added, and the plates were allowed to equilibrate for 1-2 hours prior to counting using the Wallac MicroBeta 1450 PLUS scintillation counter.

[1] = molecular target: T3, baculovirus-expressed human trkA cytoplasmic domain (Homo sapiens, UniProt P04629); assay: trkA tyrosine kinase inhibition assay (ELISA-based); conditions: 1 uM compound; 40 μM ATP
T3 construct: baculovirus-expressed human trkA cytoplasmic domain; host or cells: baculovirus expression system
T3 sequence (P04629 440-796 limits assumed): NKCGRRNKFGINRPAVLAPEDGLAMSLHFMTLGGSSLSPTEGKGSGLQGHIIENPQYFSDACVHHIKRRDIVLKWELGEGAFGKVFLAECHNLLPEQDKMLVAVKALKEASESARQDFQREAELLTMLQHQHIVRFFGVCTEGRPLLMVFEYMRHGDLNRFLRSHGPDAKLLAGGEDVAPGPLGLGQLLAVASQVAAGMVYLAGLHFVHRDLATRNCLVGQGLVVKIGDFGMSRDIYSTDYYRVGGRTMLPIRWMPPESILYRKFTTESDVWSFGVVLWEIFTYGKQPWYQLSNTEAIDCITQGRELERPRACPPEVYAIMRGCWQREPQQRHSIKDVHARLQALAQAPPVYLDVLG
Procedure: Inhibition of trkA Tyrosine Kinase Activity
Selected heterocyclic substituted pyrazolones were tested for their ability to inhibit the kinase activity of baculovirus-expressed human trkA cytoplasmic domain using an ELISA-based assay as previously described (Angeles et al., Anal. Biochem. 236: 49-55, 1996). Briefly, a 96-well microtiter plate was coated with substrate solution (recombinant human phospholipase C-γl/glutathione S-transferase fusion protein (Rotin et al., EMBO J., 11: 559-567, 1992). Inhibition studies were performed in 100 μl assay mixtures containing 50 mM Hepes, pH 7.4, 40 μM ATP, 10 mM MnCl2, 0.1% BSA, 2% DMSO, and various concentrations of inhibitor. The reaction was initiated by addition of trkA kinase and allowed to proceed for 15 minutes at 37° C. An antibody to phosphotyrosine (UBI) was then added, followed by a secondary enzyme-conjugated antibody, alkaline phosphatase-labelled goat anti-mouse IgG (Bio-Rad). The activity of the bound enzyme was measured via an amplified detection system (Gibco-BRL). Inhibition data were analyzed using the sigmoidal dose-response (variable slope) equation in GraphPad Prism.

T1 sequence (Q16584 117-379 limits assumed): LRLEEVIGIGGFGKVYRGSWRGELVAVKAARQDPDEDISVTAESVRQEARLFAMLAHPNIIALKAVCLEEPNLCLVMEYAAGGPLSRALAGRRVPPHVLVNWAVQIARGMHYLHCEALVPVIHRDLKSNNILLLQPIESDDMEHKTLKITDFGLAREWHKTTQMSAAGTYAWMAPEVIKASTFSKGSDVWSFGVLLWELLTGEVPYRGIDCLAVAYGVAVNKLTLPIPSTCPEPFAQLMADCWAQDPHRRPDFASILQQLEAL

| Compound | MLK-3 Kinase % inhibition @ 1 uM (baculoviral GST-MLK3KD) | MLK-1 Kinase % inhibition @ 1 uM (baculoviral GST-MLK1KD) | trkA % inhibition @ 1 uM [1] | inhibition at 1 µM (baculoviral GST-MLK3KD; read-out: MLK-3 Kinase % inhibition @ 1 uM) | inhibition at 1 µM (baculoviral GST-MLK1KD; read-out: MLK-1 Kinase % inhibition @ 1 uM) | inhibition at 1 µM [1] |
| --- | --- | --- | --- | --- | --- | --- |
| Cn1cc(C=C2C(=O)NN=C2c2cccs2)c2ccccc21 [Compound 63] | 78% | 14% | 60% |  |  |  |
| N#CCCn1cc(C=C2C(=O)NN=C2c2nccs2)c2ccccc21 [Compound 64] | 15% | 10% | 10% |  |  |  |
| N#CCCn1cc(C=C2C(=O)NN=C2c2ccoc2)c2ccccc21 [Compound 65] | 7% | 10% | 22% |  |  |  |
| N#CCCn1cc(C=C2C(=O)NN=C2c2cccs2)c2ccccc21 [Compound 66] | 11% | 11% | 32% |  |  |  |
| N#CCCn1cc(C=C2C(=O)NN=C2c2ccco2)c2ccccc21 [Compound 67] | 8% | 3% | 40% |  |  |  |
| O=C1NN=C(c2ccoc2)C1=Cc1cn(Cc2ccccc2)c2ccccc12 [Compound 68] | 20% | 17% | 42% |  |  |  |
| O=C1NN=C(c2ccco2)C1=Cc1cn(Cc2ccccc2)c2ccccc12 [Compound 69] | 9% | 21% | 35% |  |  |  |
| O=C1NN=C(c2nccs2)C1=Cc1cn(Cc2ccccc2)c2ccccc12 [Compound 70] | 15% | 21% | 32% |  |  |  |
| O=C1NN=C(c2ccco2)C1=Cc1cn(CCOCc2ccccc2)c2ccccc12 [Compound 71] | 9% | 9% | 15% |  |  |  |
| O=C1NN=C(c2nccs2)C1=Cc1cn(CCOCc2ccccc2)c2ccccc12 [Compound 72] | 28% | 14% | 38% |  |  |  |
| CC(C)Cn1cc(C=C2C(=O)NN=C2c2nccs2)c2ccccc21 [Compound 73] | 5% | −1% | 8% |  |  |  |
| Cc1cc(C)c(C=C2C(=O)NN=C2c2cnccn2)[nH]1 [Compound 74, 4-[(3,5-dimethylpyrrol-2-yl)methylene]-3-pyrazin-2-yl-2-pyrazolin-5-one] |  |  |  | 72% | 44% | 53% |
| O=C1NN=C(c2cccs2)C1=Cc1cn(Cc2ccccc2)c2ccccc12 [Compound 75] | 24% | 5% | 23% |  |  |  |
